Source: PubChem BioAssay (NCI)
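Grown in 96-well plates, cells were treated for 48 hours with each compound at five concentrations. Insufficient inhibition: endpoint recorded as highest concentration tested. GI50 is the concentration that inhibits growth by half. TGI marks complete inhibition of growth.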

Legend:
Test in all cases: inhibition of tumour cell growth, NCI panel, 48 h
NCI-H23 lung = test system: NCI-H23 lung
T-47D breast = test system: T-47D breast
COLO 205 colon = test system: COLO 205 colon
IGROV1 ovarian = test system: IGROV1 ovarian
SF-539 CNS = test system: SF-539 CNS
SR leukemia = test system: SR leukemia
SW-620 colon = test system: SW-620 colon
SK-MEL-28 melanoma = test system: SK-MEL-28 melanoma
LOX IMVI melanoma = test system: LOX IMVI melanoma
HCT-15 colon = test system: HCT-15 colon
RXF 393 renal = test system: RXF 393 renal
M14 melanoma = test system: M14 melanoma
KM12 colon = test system: KM12 colon
SN12C renal = test system: SN12C renal
A498 renal = test system: A498 renal
HL-60(TB) leukemia = test system: HL-60(TB) leukemia
UO-31 renal = test system: UO-31 renal
DU-145 prostate = test system: DU-145 prostate
HCC-2998 colon = test system: HCC-2998 colon
UACC-62 melanoma = test system: UACC-62 melanoma
MALME-3M melanoma = test system: MALME-3M melanoma
NCI-H522 lung = test system: NCI-H522 lung
HCT-116 colon = test system: HCT-116 colon
HOP-62 NSCLC = test system: HOP-62 NSCLC
SF-268 CNS = test system: SF-268 CNS
OVCAR-5 ovarian = test system: OVCAR-5 ovarian
TK-10 renal = test system: TK-10 renal
OVCAR-4 ovarian = test system: OVCAR-4 ovarian
OVCAR-3 ovarian = test system: OVCAR-3 ovarian
SNB-19 CNS = test system: SNB-19 CNS
SF-295 CNS = test system: SF-295 CNS
SK-OV-3 ovarian = test system: SK-OV-3 ovarian
CCRF-CEM leukemia = test system: CCRF-CEM leukemia
CAKI-1 renal = test system: CAKI-1 renal
NCI-H460 lung = test system: NCI-H460 lung
MOLT-4 leukemia = test system: MOLT-4 leukemia
HOP-92 NSCLC = test system: HOP-92 NSCLC
K-562 leukemia = test system: K-562 leukemia
SK-MEL-5 melanoma = test system: SK-MEL-5 melanoma
SNB-75 CNS = test system: SNB-75 CNS
MDA-MB-435 = test system: MDA-MB-435
MCF7 breast = test system: MCF7 breast
NCI/ADR-RES ovarian = test system: NCI/ADR-RES ovarian
PC-3 prostate = test system: PC-3 prostate
UACC-257 melanoma = test system: UACC-257 melanoma
786-0 renal = test system: 786-0 renal
HS 578T breast = test system: HS 578T breast
NCI-H226 lung = test system: NCI-H226 lung
OVCAR-8 ovarian = test system: OVCAR-8 ovarian
BT-549 breast = test system: BT-549 breast
MDA-MB-231 breast = test system: MDA-MB-231 breast
ACHN renal = test system: ACHN renal
RPMI-8226 leukemia = test system: RPMI-8226 leukemia
U251 CNS = test system: U251 CNS
A549 NSCLC = test system: A549 NSCLC
HT29 colon = test system: HT29 colon

Compound: FC(F)(F)c1cccc(Nc2nc3ccccc3nc2Nc2cccc(C(F)(F)F)c2)c1
- GI50 (NCI-H23 lung): 1720 nM
- TGI (NCI-H23 lung): 6310 nM
- GI50 (T-47D breast): 1410 nM
- TGI (T-47D breast): 4730 nM
- GI50 (COLO 205 colon): 682 nM
- TGI (COLO 205 colon): 2180 nM
- GI50 (IGROV1 ovarian): 3200 nM
- TGI (IGROV1 ovarian): 16800 nM
- GI50 (SF-539 CNS): 959 nM
- TGI (SF-539 CNS): 3120 nM
- GI50 (SR leukemia): 1110 nM
- TGI (SR leukemia): 3360 nM
- GI50 (SW-620 colon): 1710 nM
- TGI (SW-620 colon): 4010 nM
- GI50 (SK-MEL-28 melanoma): 1710 nM
- TGI (SK-MEL-28 melanoma): 4730 nM
- GI50 (LOX IMVI melanoma): 1500 nM
- TGI (LOX IMVI melanoma): 3070 nM
- GI50 (HCT-15 colon): 515 nM
- TGI (HCT-15 colon): 2050 nM
- GI50 (RXF 393 renal): 882 nM
- TGI (RXF 393 renal): 2340 nM
- GI50 (M14 melanoma): 972 nM
- TGI (M14 melanoma): 3150 nM
- GI50 (KM12 colon): 1990 nM
- TGI (KM12 colon): 4950 nM
- GI50 (SN12C renal): 442 nM
- TGI (SN12C renal): 2850 nM
- GI50 (A498 renal): 663 nM
- TGI (A498 renal): 3990 nM
- GI50 (HL-60(TB) leukemia): 1860 nM
- TGI (HL-60(TB) leukemia): 4770 nM
- GI50 (UO-31 renal): 1980 nM
- TGI (UO-31 renal): 11000 nM
- GI50 (DU-145 prostate): 732 nM
- TGI (DU-145 prostate): 13000 nM
- GI50 (HCC-2998 colon): 2930 nM
- TGI (HCC-2998 colon): 7450 nM
- GI50 (UACC-62 melanoma): 1560 nM
- TGI (UACC-62 melanoma): 5470 nM
- GI50 (MALME-3M melanoma): 2130 nM
- TGI (MALME-3M melanoma): 6330 nM
- GI50 (NCI-H522 lung): 335 nM
- TGI (NCI-H522 lung): 1630 nM
- GI50 (HCT-116 colon): 361 nM
- TGI (HCT-116 colon): 1520 nM
- GI50 (HOP-62 NSCLC): 762 nM
- TGI (HOP-62 NSCLC): 2170 nM
- GI50 (SF-268 CNS): 1290 nM
- TGI (SF-268 CNS): 13000 nM
- GI50 (OVCAR-5 ovarian): 454 nM
- TGI (OVCAR-5 ovarian): 3390 nM
- GI50 (TK-10 renal): 1470 nM
- TGI (TK-10 renal): 3800 nM
- GI50 (OVCAR-4 ovarian): 2930 nM
- TGI (OVCAR-4 ovarian): 14600 nM
- GI50 (OVCAR-3 ovarian): 444 nM
- TGI (OVCAR-3 ovarian): 4300 nM
- GI50 (SNB-19 CNS): 732 nM
- TGI (SNB-19 CNS): 15400 nM
- GI50 (SF-295 CNS): 1920 nM
- TGI (SF-295 CNS): 5410 nM
- GI50 (SK-OV-3 ovarian): 437 nM
- TGI (SK-OV-3 ovarian): 1580 nM
- GI50 (CCRF-CEM leukemia): 710 nM
- TGI (CCRF-CEM leukemia): 3840 nM
- GI50 (CAKI-1 renal): 1020 nM
- TGI (CAKI-1 renal): 8780 nM
- GI50 (NCI-H460 lung): 457 nM
- TGI (NCI-H460 lung): 10100 nM
- GI50 (MOLT-4 leukemia): 1510 nM
- TGI (MOLT-4 leukemia): 4340 nM
- GI50 (HOP-92 NSCLC): 1360 nM
- TGI (HOP-92 NSCLC): 4670 nM
- GI50 (K-562 leukemia): 1280 nM
- TGI (K-562 leukemia): 5610 nM
- GI50 (SK-MEL-5 melanoma): 481 nM
- TGI (SK-MEL-5 melanoma): 1700 nM
- GI50 (SNB-75 CNS): 1150 nM
- TGI (SNB-75 CNS): 6710 nM
- GI50 (MDA-MB-435): 1030 nM
- TGI (MDA-MB-435): 2880 nM
- GI50 (MCF7 breast): 2040 nM
- TGI (MCF7 breast): 9630 nM
- GI50 (NCI/ADR-RES ovarian): 1980 nM
- TGI (NCI/ADR-RES ovarian): 11400 nM
- GI50 (PC-3 prostate): 495 nM
- TGI (PC-3 prostate): 7610 nM
- GI50 (UACC-257 melanoma): 2020 nM
- TGI (UACC-257 melanoma): 5540 nM
- GI50 (786-0 renal): 1810 nM
- TGI (786-0 renal): 3910 nM
- GI50 (HS 578T breast): 2670 nM
- TGI (HS 578T breast): 7880 nM
- GI50 (NCI-H226 lung): 1210 nM
- TGI (NCI-H226 lung): 2980 nM
- GI50 (OVCAR-8 ovarian): 745 nM
- TGI (OVCAR-8 ovarian): 5570 nM
- GI50 (BT-549 breast): 2710 nM
- TGI (BT-549 breast): 7600 nM
- GI50 (MDA-MB-231 breast): 993 nM
- TGI (MDA-MB-231 breast): 2730 nM
- GI50 (ACHN renal): 415 nM
- TGI (ACHN renal): 2230 nM
- GI50 (RPMI-8226 leukemia): 797 nM
- TGI (RPMI-8226 leukemia): 3950 nM
- GI50 (U251 CNS): 427 nM
- TGI (U251 CNS): 1910 nM
- GI50 (A549 NSCLC): 368 nM
- TGI (A549 NSCLC): 2810 nM
- GI50 (HT29 colon): 391 nM
- TGI (HT29 colon): 2030 nM
